# Reference: patent US20170128519A1, “CASPASE INHIBITORS FOR THE TREATMENT OF COLORECTAL CANCER” (Conatus Pharmaceuticals, Inc., priority 2015, published 2017)
# Test system: HT-29 cells
# Test: crystal violet assay of adherent HT-29 cells after 5-FU treatment
# Assay type: cell-based, human
# Protocol: 5-Fluoruracil (5-FU) was from Sigma Aldrich, Necrostatin-1 was from Enzo Life Sciences. HAT-29 human CRC cell line was obtained from ATCC after cell line authentication utilizing short tandem repeat (STR) profiling. Within four weeks all cell lines were expanded and frozen in aliquots. Cell lines were reauthenticated and regularly tested for contamination as provided by the German Cancer Research Center (DKFZ) Core Facility (Heidelberg). Cells were cultured in RPMI-1640 medium (Biochrom) containing 10% FCS (PAA Laboratories) and 1% penicillin/streptomycin at 5% CO2 and 37° C.
# HT-29 cells were incubated with 20 μM IDN-7314 and/or 20 μM Necrostatin (N) for 2 hours prior to treatment with 5-Fluoruracil (5-FU, 50 or 100 mg/ml). After 48 hours, the number of adherent cells was determined via crystal violet assay (RLU=relative light units). […] This effect could be abolished by the RIP1-specific kinase inhibitor, necrostatin, the reduced number of cells is due to induction of necrotic cell death.
Structure (SMILES),"effect of necrostatin on the reduction of adherent cells by IDN-7314 co-treatment (20 μM Necrostatin with 20 μM IDN-7314 for 2 hours prior to 5-FU (50 or 100 mg/ml), 48 hours)","number of adherent cells (crystal violet assay, RLU) (20 μM IDN-7314 for 2 hours prior to 5-FU (50 or 100 mg/ml), read after 48 hours)",sensitization of colon cancer cells to chemotherapy-induced necrotic cell death (FIG. 1) (IDN-7314 with 5-FU)
"CN1C(=O)C(Cc2c[nH]c3ccccc23)NC1=S (stereo not drawn) [necrostatin, Necrostatin-1, reference compound]",abolished,–,–
C[C@H](NC(=O)C(=O)Nc1c(F)cccc1F)C(=O)N[C@@H](CC(=O)O)C(=O)COc1c(F)c(F)cc(F)c1F [IDN-7314],–,significantly reduced the number of adherent cells,sensitizes colon cancer cells to chemotherapy-induced necrotic cell death
